Experimental data as given in patent US5324708A, “Non-hygroscopic monoammonium salts of phosphonic and phosphinic acids” (Aklaloida Vegyeszeti Gyar Rt., priority 1991, dated 1994).
Counter-ions that a name gives are not always drawn. Like-named read-outs stand apart in the source and are kept apart here.

Tests used:
[1] = Hygroscopicity of products (in words); type: physicochemical; conditions: product of the example
Description: "Non-hygroscopic" according to our invention means, that when exposed at 25° C. to an environment containing 60% humidity no observable uptake of water takes place within 3 weeks or this uptake is less than 0.1%. The salts are crystalline, they have melting point ranges that are different from those published before and their water-solubility is somewhat increased as compared with the salts prepared with the known methods.

[2] = Water solubility of products (in words); type: physicochemical
[3] = Uptake of humidity in open containers at 60% humidity and 25° C. (Table VI); type: physicochemical; conditions: 60% humidity
Description: The samples were investigated in open containers, at 60% humidity and 25° C.

[4] = Solubility tests, N-(phosphonomethyl)-glycine and its salts (Table IV); type: physicochemical
Description: Table IV illustrates some solubility values of the mono-isopropylammonium salts and di-isopropylammonium salts of N-(phosphonomethyl)-glycine on the basis of which the processes according to our invention can be reduced to practice. All solvents or solvent-mixtures can be used for our processes which show a reasonable solubility--difference between the salts and products that have to be separated.

[5] = according to prior publications; cited from earlier work

SMILES: O=C(O)CNCP(=O)(O)O [Example I.1, mono-isopropylammonium salt of N-(phosphonomethyl)-glycine]
- hygroscopicity (in words) [1]: not hygroscopic
- solubility in water (in words) [2]: readily soluble

SMILES: O=C(O)CNCP(=O)(O)O [Example I.2, mono-isopropylammonium salt of N-(phosphonomethyl)-glycine]
- hygroscopicity (in words) [1]: not hygroscopic
- solubility in water (in words) [2]: readily soluble

SMILES: O=C(O)CNCP(=O)(O)O [Example I.12, mono-isopropylammmonium salt of N-(phosphonomethyl)-glycine]
- hygroscopicity (in words) [1]: non-hygroscopic
- solubility in water (in words) [2]: readily soluble

SMILES: O=C(O)CNCP(=O)(O)O [Example I.15, mono-isopropylammonium salt of N-(phosphonomethyl)-glycine]
- hygroscopicity (in words) [1]: non-hygroscopic
- solubility in water (in words) [2]: readily soluble

SMILES: O=C(O)CNCP(=O)(O)O [Example I.18, mono-(dimethyl-ammonium)-salt of N-(phosphonomethyl)-glycine]
- hygroscopicity (in words) [1]: non-hygroscopic
- solubility in water (in words) [2]: readily soluble

SMILES: O=C(O)CNCP(=O)(O)O [Example I.20, mono-isopropylammonium salt of N-(phosphonomethyl)-glycine]
- hygroscopicity (in words) [1]: non-hygroscopic
- solubility in water (in words) [2]: readily soluble

SMILES: O=C(O)CNCP(=O)(O)O [Example I.24, mono-isopropylammonium salt of N-(phosphonomethyl)-glycine]
- hygroscopicity (in words) [1]: non-hygroscopic
- solubility in water (in words) [2]: readily soluble

SMILES: O=C(O)CNCP(=O)(O)O [I.7, mono-isopropylammonium salt of N-(phosphonomethyl)-glycine]
- hygroscopicity (in words) [1]: non-hygroscopic

SMILES: O=C(O)CNCP(=O)(O)O [I.8, mono-isopropylammoniumsalt of N-(phosphonomethyl)-glycine]
- hygroscopicity (in words) [1]: non-hygroscopic
- solubility in water (in words) [2]: readily soluble

SMILES: CP(=O)(O)CCC(N)C(=O)O (stereo not shown) [I.9, mono-isopropylammoniumsalt of (3-amino-3-carboxy-propyl)-methane-phosphinic acid]
- hygroscopicity (in words) [1]: non-hygroscopic

SMILES: CP(=O)(O)CCC(N)C(=O)O (stereo not shown) [I.10, mono-isopropylammoniumsalt of (3-amino-3-carboxy-propyl)-methane-phosphinic acid]
- hygroscopicity (in words) [1]: non-hygroscopic

SMILES: O=C(O)CNCP(=O)(O)O [I.13, mono-isopropylammmonium salt of N-(phosphonomethyl)-glycine]
- hygroscopicity (in words) [1]: non-hygroscopic
- solubility in water (in words) [2]: readily soluble

SMILES: O=C(O)CNCP(=O)(O)O [I.14, mono-isopropylammonium salt of N-(phosphonomethyl)-glycine]
- hygroscopicity (in words) [1]: non-hygroscopic
- solubility in water (in words) [2]: readily soluble

SMILES: O=C(O)CNCP(=O)(O)O [I.16, mono-isopropylammonium salt of N-(phosphonomethyl)-glycine]
- hygroscopicity (in words) [1]: non-hygroscopic
- solubility in water (in words) [2]: readily soluble

SMILES: O=C(O)CNCP(=O)(O)O [I.17, mono-isopropylammonium salt of N-(phosphonomethyl)-glycine]
- hygroscopicity (in words) [1]: non-hygroscopic
- solubility in water (in words) [2]: readily soluble

SMILES: O=C(O)CNCP(=O)(O)O [I.19, mono-ethylammonium salt of N-(phosphonomethyl)-glycine]
- hygroscopicity (in words) [1]: non-hygroscopic
- solubility in water (in words) [2]: readily soluble

SMILES: O=C(O)CNCP(=O)(O)O [I.21, mono-isopropylammonium salt of N-(phosphonomethyl)-glycine]
- hygroscopicity (in words) [1]: non-hygroscopic
- solubility in water (in words) [2]: readily soluble

SMILES: O=C(O)CNCP(=O)(O)O [I.22, mono-isopropylammonium salt of N-(phosphonomethyl)-glycine]
- hygroscopicity (in words) [1]: non-hygroscopic
- solubility in water (in words) [2]: readily soluble

SMILES: O=C(O)CNCP(=O)(O)O [I.23, mono-isoptopylammonium salt of N-(phosphonomethyl)-glycine]
- hygroscopicity (in words) [1]: non-hygroscopic
- solubility in water (in words) [2]: readily soluble

SMILES: O=C(O)CNCP(=O)(O)O [I.25, mono-isopropylammonium salt of N-(phosphonomethyl)-glycine]
- hygroscopicity (in words) [1]: non-hygroscopic
- solubility in water (in words) [2]: readily soluble

SMILES: O=C(O)CNCP(=O)(O)O [I.26, mono-isopropylammonium salt of N-(phosphonomethyl)-glycine]
- hygroscopicity (in words) [1]: non-hygroscopic
- solubility in water (in words) [2]: readily soluble

SMILES: O=C(O)CNCP(=O)(O)O [di-IPA salt, di-(mono-isopropylamine)-salt of N-(phosphonomethyl)-glycine]
- solubility in water (in words) [2]: readily soluble
- Uptake of humidity ([3]; 1 day, listed as di-isopropyl-ammonium salt of N-(phosphonomethyl)-glycine): 13.0%
- Uptake of humidity ([3]; 2 days, listed as di-isopropyl-ammonium salt of N-(phosphonomethyl)-glycine): 14.5%
- Uptake of humidity ([3]; 7 days, listed as di-isopropyl-ammonium salt of N-(phosphonomethyl)-glycine): 16.1%
- Uptake of humidity ([3]; 14 days, listed as di-isopropyl-ammonium salt of N-(phosphonomethyl)-glycine): 18.8%
- Uptake of humidity ([3]; 30 days, listed as di-isopropyl-ammonium salt of N-(phosphonomethyl)-glycine): 19.2%
- Uptake of humidity ([3]; 90 days, listed as di-isopropyl-ammonium salt of N-(phosphonomethyl)-glycine): 30.9%
- Appearance ([3]; within 1 day): sticky and hygroscopic
- Appearance ([3]; within 4 days): completely liquid
- SOLUBILITY ([4]; benzene): < 0.1 g/L
- SOLUBILITY ([4]; benzyl-alcohol): 420 g/L
- SOLUBILITY ([4]; dimethyl-formamide): 22 g/L
- SOLUBILITY ([4]; isopropyl amine): < 0.1 g/L
- SOLUBILITY ([4]; methanol): 570 g/L
- SOLUBILITY ([4]; n-butanol): 35 g/L
- SOLUBILITY ([4]; n-propanol): 170 g/L
- SOLUBILITY ([4]; propylene-glycol): 244 g/L

SMILES: O=C(O)CNCP(=O)(O)O [glyphosate, N-(phosphonomethyl)-glycine]
- SOLUBILITY ([4]; benzene): < 0.1 g/L
- SOLUBILITY ([4]; benzyl-alcohol): < 0.2 g/L
- SOLUBILITY ([4]; dimethyl-formamide): < 0.2 g/L
- SOLUBILITY ([4]; ethanol): 0.2 g/L
- SOLUBILITY ([4]; isopropanol): < 0.5 g/L
- SOLUBILITY ([4]; methanol): < 0.3 g/L
- SOLUBILITY ([4]; n-propanol): < 0.5 g/L
- SOLUBILITY ([4]; water): 12 g/L

SMILES: O=C(O)CNCP(=O)(O)O [mono-IPA salt, mono-isopropylammonium salt of N-(phosphonomethyl)-glycine]
- Uptake of humidity ([3]; 1 day): 0.1%
- Uptake of humidity ([3]; 2 days): 0.1%
- Uptake of humidity ([3]; 7 days): 0.1%
- Uptake of humidity ([3]; 14 days): 0.1%
- Uptake of humidity ([3]; 30 days): 0.1%
- Uptake of humidity ([3]; 90 days): 0.1%
- Appearance ([3]; after 30 days): unchanged
- hygroscopicity (in words) [5]: extreme hygroscopic nature
- SOLUBILITY ([4]; benzene): < 0.1 g/L
- SOLUBILITY ([4]; benzyl-alcohol): 0.5 g/L
- SOLUBILITY ([4]; dimethyl-formamide): 1.8 g/L
- SOLUBILITY ([4]; isopropyl amine): < 0.1 g/L
- SOLUBILITY ([4]; methanol): 56 g/L
- SOLUBILITY ([4]; n-butanol): 0.1 g/L
- SOLUBILITY ([4]; n-propanol): 0.7 g/L
- SOLUBILITY ([4]; propylene-glycol): 184.0 g/L
- SOLUBILITY ([4]; water): 1470 g/L

SMILES: CP(=O)(O)CCC(N)C(=O)O (stereo not shown) [mono-ammonium salt, (3-amino-3-carboxy-propyl)-methane-phosphinic acid ammonium salt]
- hygroscopicity (in words) [5]: hygroscopic
